{"source": "patent US20260216135A1", "about": "“ANTIVIRAL PHARMACEUTICAL COMPOSITION AND PREPARATION METHOD THEREFOR” (priority 2023, published 2026)", "key": {"[1]": {"tested_on": "47 safety-related targets", "conditions": "read-out: EC50 for 47 safety-related targets (inhibition or activation)", "description": "For 78 tests related to 47 safe targets, the experimental methods used included: CAMP assay, calcium flux assay, hormone nuclear receptor assay, kinase binding assay, enzyme activity assay, neurotransmitter transporter assay, ion channel assay, and transporter assay."}, "[2]": {"tested_on": "SARS-CoV-2 Delta strain", "conditions": "for Viral load, brain tissue, Day 4 / Viral load, lung tissue, Day 2: intragastric BID, mean ± SD"}, "[3]": {"tested_on": "SARS-CoV-2 Omicron strain (B.1.1.529)", "assay": "microbe, parasite or virus in culture", "conditions": "Severe acute respiratory syndrome coronavirus 2, Vero C1008, read-out: IC50 (μM), Vero E6 Omicron strain (B.1.1.529)"}, "[4]": {"conditions": "200 mg/kg + ritonavir 50 mg/kg, listed as compound of formula (I)"}}, "note": "pEC50: −log10 of the molar value. Read-outs that look alike come from different tables or passages of the source.", "data": [{"molecule": "CC(C)(C)[C@H](NC(=O)C(F)(F)F)C(=O)N1CC2(C[C@H]1C(=O)N[C@H](C#N)C[C@@H]1CCNC1=O)SCCS2", "note": "[Compound of formula (I)]", "values": [{"measurement": "pEC50", "setting": "[1]", "result": "< 4.00"}, {"measurement": "Viral load, brain tissue, Day 4", "setting": "[2]; 50 mg/kg + ritonavir 50 mg/kg", "result": "2.88 ± 1.26", "unit": "log10 copies/mg"}, {"measurement": "Viral load, lung tissue, Day 2", "setting": "[2]; 50 mg/kg + ritonavir 50 mg/kg", "result": "7.66 ± 0.27", "unit": "log10 copies/g"}, {"measurement": "Viral load, lung tissue, Day 2", "setting": "[2]; 50 mg/kg + ritonavir 50 mg/kg, listed as compound of formula (I)", "result": 7.66, "unit": "log10 copies/g"}, {"measurement": "Viral load, brain tissue, Day 4", "setting": "[2]; 200 mg/kg + ritonavir 50 mg/kg", "result": "0.99 ± 0.42", "unit": "log10 copies/mg"}, {"measurement": "Viral load, lung tissue, Day 2", "setting": "[2]; 200 mg/kg + ritonavir 50 mg/kg", "result": "6.79 ± 0.30", "unit": "log10 copies/g"}, {"measurement": "Viral load, brain tissue, Day 4", "setting": "[2]; [4]", "result": "comparable to that of the uninfected normal group"}, {"measurement": "Viral load, lung tissue, Day 2", "setting": "[2]; [4]", "result": "6.79±0.30", "unit": "log10 copies/g"}, {"measurement": "Histopathological analysis of the lungs", "setting": "[2]; 200 mg/kg, compared with model group", "result": "significantly ameliorated lung damage"}, {"measurement": "Body weight of mice", "setting": "[2]; mouse, in vivo", "result": "not significantly reduced"}, {"measurement": "Reduction of viral copy number in the lungs compared with the model group", "setting": "[2]; mouse, in vivo", "result": 2.4, "unit": "log 10 copies/g"}, {"measurement": "Reduction of viral titer in the lungs compared to the model group", "setting": "[2]; mouse, in vivo", "result": "more than 3 log 10 PFU/g"}, {"measurement": "Virus titer in the brains (plaque assay)", "setting": "[2]; mouse, in vivo", "result": "no virus titer was detected"}, {"measurement": "IC50", "setting": "[3]", "result": 0.12, "unit": "µM"}]}]}
